Columns and labels:
Assay in all cases: relative viability (nuclei count vs DMSO), 5 days (fraction); higher = more cells survive
Ispinesib + Dasatinib = compound: Cc1ccc(C(=O)N(CCCN)[C@@H](c2nc3cc(Cl)ccc3c(=O)n2Cc2ccccc2)C(C)C)cc1 [Ispinesib] + Cc1nc(Nc2ncc(C(=O)Nc3c(C)cccc3Cl)s2)cc(N2CCN(CCO)CC2)n1 [Dasatinib] (partner 0.075 µM)
Procedure, shortened: (§1)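 Lung cancer cell lines were pin-tool dosed in 1536-well plates on the day after seeding, with either a lone drug or a fixed anchor-drug dose plus five library-drug doses (not always all listed) in √10 steps. Nuclei were counted on 4× images after 5 days. Relative viability is the ratio of treated-well to vehicle-well nuclei counts, with each value a median of duplicate plates.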

Ispinesib + Phenformin = compound: Cc1ccc(C(=O)N(CCCN)[C@@H](c2nc3cc(Cl)ccc3c(=O)n2Cc2ccccc2)C(C)C)cc1 [Ispinesib] + N=C(N)NC(=N)NCCc1ccccc1 [Phenformin] (partner 250 µM)
Procedure, shortened: as §1

Linsitinib + Foretinib = compound: C[C@]1(O)C[C@@H](c2nc(-c3ccc4ccc(-c5ccccc5)nc4c3)c3c(N)nccn32)C1 [Linsitinib] + COc1cc2c(Oc3ccc(NC(=O)C4(C(=O)Nc5ccc(F)cc5)CC4)cc3F)ccnc2cc1OCCCN1CCOCC1 [Foretinib] (partner 0.25 µM)
Procedure, shortened: as §1

Linsitinib + Pictilisib = compound: C[C@]1(O)C[C@@H](c2nc(-c3ccc4ccc(-c5ccccc5)nc4c3)c3c(N)nccn32)C1 [Linsitinib] + CS(=O)(=O)N1CCN(Cc2cc3nc(-c4cccc5[nH]ncc45)nc(N4CCOCC4)c3s2)CC1 [Pictilisib] (partner 1 µM)
Procedure, shortened: as §1

Cell Line	relative viability (Ispinesib + Dasatinib; first compound 0.001 µM)	relative viability (Ispinesib + Dasatinib; first compound 0.003162 µM)	relative viability (Ispinesib + Dasatinib; first compound 0.01 µM)	relative viability (Ispinesib + Dasatinib; first compound 0.03162 µM)	relative viability (Ispinesib + Dasatinib; first compound 0.1 µM)	relative viability (Ispinesib + Phenformin; first compound 0.001 µM)	relative viability (Ispinesib + Phenformin; first compound 0.003162 µM)	relative viability (Ispinesib + Phenformin; first compound 0.01 µM)	relative viability (Ispinesib + Phenformin; first compound 0.03162 µM)	relative viability (Ispinesib + Phenformin; first compound 0.1 µM)	relative viability (Linsitinib + Foretinib; first compound 0.01 µM)	relative viability (Linsitinib + Foretinib; first compound 0.03162 µM)	relative viability (Linsitinib + Foretinib; first compound 0.1 µM)	relative viability (Linsitinib + Foretinib; first compound 1 µM)	relative viability (Linsitinib + Pictilisib; first compound 0.01 µM)	relative viability (Linsitinib + Pictilisib; first compound 0.03162 µM)	relative viability (Linsitinib + Pictilisib; first compound 0.1 µM)	relative viability (Linsitinib + Pictilisib; first compound 1 µM)	relative viability (Linsitinib + Pictilisib; first compound 0.3162 µM)	relative viability (Linsitinib + Foretinib; first compound 0.3162 µM)
HOP-62	0.815	0.824	0.837	0.534	0.251	0.774	0.728	0.709	0.632	0.225	1.09	1.05	1.06	1.16	0.894	0.715	0.934	0.356		
HCC-15	0.711	0.662	0.604	0.371	0.21	0.567	0.48	0.487	0.19	0.184	1.08	1.01	1.04	0.809	0.743	0.703	0.824	0.583	0.234	
HARA	0.26	0.258	0.301	0.293	0.0741	0.492	0.509	0.614	0.343	0.113	0.91	0.938	0.758	0.932	0.399	0.373	0.248	0.166	0.369	
SK-MES-1	0.326	0.373	0.384	0.165	0.231	0.753	0.714	0.761	0.193	0.186	0.865	1.08	0.999	0.81	0.357	0.377	0.32	0.339	0.293	0.778
NCI-H1355	0.82	0.836	0.625	0.379	0.423	0.422	0.465	0.495	0.291	0.315	0.973	0.964	0.873	0.759	0.433	0.437	0.343	0.359	0.228	0.811
NCI-H727	0.536	0.221	0.434	0.472	0.388	0.601	0.6	0.385	0.466	0.309	0.836	0.866	0.647	0.611	0.414	0.353	0.342	0.17	0.281	0.632
NCI-H520	0.164	0.229	0.178	0.152	0.198	0.535	0.571	0.382	0.251	0.222	0.704	0.529	0.988	0.952	0.324	0.306	0.285	0.284		
NCI-H838	0.325	0.335	0.29	0.242	0.182	0.649	0.605	0.827	0.194	0.163	0.996	0.855	0.894	0.716	0.42	0.446	0.374	0.306	0.217	
LK-2	0.227	0.331	0.299	0.26	0.199	0.377	0.475	0.4	0.318	0.291	1.27	1.24	1.21	1.22	0.698	0.529	0.553	0.851	0.494	1.08
HCC-827	0.36	0.318	0.317	0.292	0.263	0.424	0.432	0.457	0.332	0.257	1.07	1.1	1.02	0.966	1.07	1.19	1.11	1.12	0.88	
SW 1573	0.529	0.426	0.721	0.122	0.153	0.373	0.369	0.426	0.145	0.141	0.959	0.912	0.764	0.628	0.453	0.571	0.471	0.425	0.433	0.744
NCI-H2023	0.693	0.613	0.613	0.306	0.146	0.484	0.479	0.384	0.187	0.154	0.864	0.546	0.835	0.515	0.233	0.18	0.172	0.147	0.0774	0.512
EPLC-272H	0.407	0.354	0.32	0.172	0.182	0.317	0.283	0.262	0.217	0.145	0.72	0.693		0.656	0.339	0.306	0.286	0.23		
SK-LU-1	0.173	0.173	0.173	0.144	0.112	0.555	0.627	0.561	0.251	0.203	0.813		0.804	0.72	0.54	0.548	0.706	0.592		0.712
NCI-H358	0.162	0.144	0.163	0.131	0.0677	0.391	0.351	0.266	0.102	0.0986	0.62	0.701	0.607	0.365	0.317	0.232	0.333	0.281	0.261	0.538
ABC-1	0.569	0.803	0.523	0.294	0.288	0.278	0.223	0.289	0.197	0.226	1.23	0.924	1.05	1.76	0.883	0.572	0.696	0.498	0.434	0.747
NCI-H1395	0.432	0.419	0.713	0.354	0.333	0.491	0.487	0.514	0.354	0.292	0.98	1.01	1	0.998	0.568	0.603	0.618	0.556	0.573	0.957

Cell Line	relative viability (Ispinesib + Dasatinib; first compound 0.001 µM)	relative viability (Ispinesib + Dasatinib; first compound 0.003162 µM)	relative viability (Ispinesib + Dasatinib; first compound 0.01 µM)	relative viability (Ispinesib + Dasatinib; first compound 0.03162 µM)	relative viability (Ispinesib + Dasatinib; first compound 0.1 µM)	relative viability (Ispinesib + Phenformin; first compound 0.001 µM)	relative viability (Ispinesib + Phenformin; first compound 0.003162 µM)	relative viability (Ispinesib + Phenformin; first compound 0.01 µM)	relative viability (Ispinesib + Phenformin; first compound 0.03162 µM)	relative viability (Ispinesib + Phenformin; first compound 0.1 µM)	relative viability (Linsitinib + Foretinib; first compound 0.01 µM)	relative viability (Linsitinib + Foretinib; first compound 0.03162 µM)	relative viability (Linsitinib + Foretinib; first compound 0.1 µM)	relative viability (Linsitinib + Foretinib; first compound 1 µM)	relative viability (Linsitinib + Pictilisib; first compound 0.01 µM)	relative viability (Linsitinib + Pictilisib; first compound 0.03162 µM)	relative viability (Linsitinib + Pictilisib; first compound 0.1 µM)	relative viability (Linsitinib + Pictilisib; first compound 1 µM)	relative viability (Linsitinib + Pictilisib; first compound 0.3162 µM)	relative viability (Linsitinib + Foretinib; first compound 0.3162 µM)
NCI-H2085	0.228	0.225	0.242	0.261	0.206	0.751	0.692	0.75	0.474	0.278	0.883	0.889	0.931	0.898	0.431	0.462	0.426	0.471	0.466	0.891
NCI-H1563	0.395	0.483	0.469	0.417	0.378	0.663	0.685	0.696	0.63	0.54	0.865	0.984	0.98	0.903	0.665	0.668	0.647	0.545	0.657	0.98
NCI-H2087	0.998	0.841	0.963	0.39	0.117	0.492	0.473	0.441	0.32	0.134	1	0.995	1.01	0.967	0.92	0.906	0.723	0.775	0.294	0.813
NCI-H322M	0.271	0.244	0.233	0.252	0.288	0.874	0.891	0.82	0.39	0.389	1	0.77	0.989	0.923	0.496	0.502	0.506	0.433	0.503	0.916
NCI-H1734	0.428	0.53	0.53	0.337	0.187	0.455	0.379	0.414	0.239	0.156	0.827	0.866	0.801	0.604	0.474	0.456	0.392	0.295	0.421	0.795
NCI-H2228	0.557	0.522	0.665	0.211	0.2	0.283	0.312	0.321	0.126	0.145	0.86	0.845	0.735	0.619	0.425	0.382	0.28	0.27	0.239	0.746
EKVX	0.601	0.59	0.429	0.605	0.439	0.24	0.244	0.243	0.238	0.152	0.988	0.358	0.779	0.686	0.464	0.39	0.43	0.375	0.502	0.252
NCI-H596	0.573	0.589	0.62	0.641	0.334	0.676	0.791	0.765	0.791	0.315	0.831	0.978	0.873	0.858	0.248	0.393	0.382	0.317	0.343	0.871
NCI-H1975	0.443	0.43	0.425	0.158	0.114	0.448	0.412	0.458	0.164	0.11	0.848	0.869	0.87	0.781	0.286	0.253	0.246	0.178	0.255	0.87
NCI-H2170	0.639	0.583	0.58	0.294	0.201	0.429	0.462	0.401	0.281	0.178	0.994	1.05	0.974	0.963	0.336	0.317	0.308	0.23	0.26	0.773
NCI-H1666	0.864	0.894	0.776	0.594	0.419	0.524	0.6	0.541	0.475	0.343	0.94	1.05	0.933	0.852	0.376	0.286	0.296	0.307	0.162	0.758
PC-3 [JPC-3]	1.11	1.06	1.14	0.868	0.578	0.494	0.475	0.44	0.461	0.254	1.04	1.03	1.04	0.922	0.804	0.777	0.665	0.52	0.517	0.951
NCI-H1755	0.391	0.453	0.387	0.352	0.237	0.553	0.646	0.638	0.463	0.195	0.864	0.892	0.956	0.8	0.422	0.409	0.442	0.372	0.237	0.865
RERF-LC-KJ	0.835	0.697	0.448	0.281	0.391	0.422	0.365	0.33	0.217	0.253	0.836	0.935	0.907	0.79	0.593	0.55	0.538	0.429	0.44	0.487
NCI-H647	0.176	0.173	0.122	0.0516	0.0877	0.609	0.476	0.52	0.0907	0.126	1.14	1.23	1.19	1.17	0.415	0.42	0.452	0.347		
BEN	0.36	0.371	0.307	0.248	0.141	0.243	0.27	0.252	0.27	0.203	0.635	0.578	0.642	0.753	0.526	0.576	0.64	0.606	0.425	
